The test deals with Recombinant human IDO (Homo sapiens, UniProt P14902). Kind of test: Bridge-IT tryptophan fluorescence assay of human IDO-1 inhibition. The format is biochemical. Conditions: recombinant human IDO 7.5 nM, L-tryptophan. The essentials: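 Two protocol variants: 100 μM L-Trp for 90 min at 37 °C, or 30 min enzyme–compound pre-incubation at 25 °C, then 50 μM L-Trp for 60 min at 25 °C. Reaction stopped in Bridge-IT solution A for 30 min at 30 °C.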
Sequence of Recombinant human IDO (P14902 whole entry): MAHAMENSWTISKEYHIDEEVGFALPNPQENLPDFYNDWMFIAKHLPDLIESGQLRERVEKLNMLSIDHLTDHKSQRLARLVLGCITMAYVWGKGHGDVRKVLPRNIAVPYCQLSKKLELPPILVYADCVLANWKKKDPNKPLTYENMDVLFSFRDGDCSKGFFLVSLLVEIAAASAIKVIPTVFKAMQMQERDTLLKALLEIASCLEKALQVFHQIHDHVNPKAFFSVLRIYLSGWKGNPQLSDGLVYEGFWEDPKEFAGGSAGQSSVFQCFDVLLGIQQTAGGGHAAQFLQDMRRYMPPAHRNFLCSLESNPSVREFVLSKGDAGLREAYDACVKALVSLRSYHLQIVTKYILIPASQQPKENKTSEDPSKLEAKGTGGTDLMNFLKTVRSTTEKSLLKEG
`NC(=O)C1CCC(C(O)CC2c3ncccc3-c3cncn32)CC1` (single isomer, unassigned) [Compound 63b, 4-[1-hydroxy-2-[4,6,9-triazatricyclo[6.4.0.0^[2,6]]dodeca-1(8),2,4,9,11-pentaen-7-yl]ethyl]cyclohexane-1-carboxamide]: the IC50 (usually the point on the concentration scale where inhibition reaches its midpoint) is over 1000 nM.

`NC(=O)C1CCC(C(O)CC2c3ncccc3-c3cncn32)CC1` (single isomer, unassigned) [Compound 63c, 4-[1-hydroxy-2-[4,6,9-triazatricyclo[6.4.0.0^[2,6]]dodeca-1(8),2,4,9,11-pentaen-7-yl]ethyl]cyclohexane-1-carboxamide]: the IC50 was over 1000 nM.

With `NC(=O)C1CCC(C(O)CC2c3ncccc3-c3cncn32)CC1` (single isomer, unassigned) [Compound 63d, 4-[1-hydroxy-2-[4,6,9-triazatricyclo[6.4.0.0^[2,6]]dodeca-1(8),2,4,9,11-pentaen-7-yl]ethyl]cyclohexane-1-carboxamide], the half-maximal inhibitory concentration (IC50) is over 1000 nM.

`CC1(C)CCC(F)(CCC2c3ncncc3-c3cncn32)CC1` (single isomer, unassigned) [Compound 66a, 7-[2-(1-fluoro-4,4-dimethylcyclohexyl)ethyl]-4,6,9,11-tetraazatricyclo[6.4.0.0^[2,6]]dodeca-1(8),2,4,9,11-pentaene]: the half-maximal inhibitory concentration (IC50) is over 1000 nM.

For the compound `CC1(C)CCC(F)(CCC2c3ncncc3-c3cncn32)CC1` (single isomer, unassigned) [Compound 66b, 7-[2-(1-fluoro-4,4-dimethylcyclohexyl)ethyl]-4,6,9,11-tetraazatricyclo[6.4.0.0^[2,6]]dodeca-1(8),2,4,9,11-pentaene], the IC50 is over 1000 nM.

As for `OC(CC1c2ncncc2-c2cncn21)C1CCCCC1` (single isomer, unassigned) [Compound 67b, 1-cyclohexyl-2-[4,6,9,11-tetraazatricyclo[6.4.0.0^[2,6]]dodeca-1(8),2,4,9,11-pentaen-7-yl]ethan-1-ol], the half-inhibitory concentration (IC50) is over 1000 nM.

With `OC(CC1c2ncncc2-c2cncn21)C1CCCCC1` (single isomer, unassigned) [Compound 67c, 1-cyclohexyl-2-[4,6,9,11-tetraazatricyclo[6.4.0.0^[2,6]]dodeca-1(8),2,4,9,11-pentaen-7-yl]ethan-1-ol], the IC50 was over 1000 nM.

For `OC(CC1c2nc(OC3CC3)ccc2-c2cncn21)C1CCCCC1` (single isomer, unassigned) [Compound 68a, 1-cyclohexyl-2-[10-cyclopropoxy-4,6,9-triazatricyclo[6.4.0.0^[2,6]]dodeca-1(8),2,4,9,11-pentaen-7-yl]ethan-1-ol], the IC50 lay within 100 to 1000 nM.

On to `OC(CC1c2nc(OC3CC3)ccc2-c2cncn21)C1CCCCC1` (single isomer, unassigned) [Compound 68c, 1-cyclohexyl-2-[10-cyclopropoxy-4,6,9-triazatricyclo[6.4.0.0^[2,6]]dodeca-1(8),2,4,9,11-pentaen-7-yl]ethan-1-ol], for which the IC50 was over 1000 nM.

Turning to `OC(CC1c2nc(OC3CC3)ccc2-c2cncn21)C1CCC(F)(F)CC1` (single isomer, unassigned) [Compound 69a, 2-[10-cyclopropoxy-4,6,9-triazatricyclo[6.4.0.0^[2,6]]dodeca-1(8),2,4,9,11-pentaen-7-yl]-1-(4,4-difluorocyclohexyl)ethan-1-ol], the IC50 was in the range of 100 to 1000 nM.

Consider `OC(CC1c2nc(OC3CC3)ccc2-c2cncn21)C1CCC(F)(F)CC1` (single isomer, unassigned) [Compound 69b, 2-[10-cyclopropoxy-4,6,9-triazatricyclo[6.4.0.0^[2,6]]dodeca-1(8),2,4,9,11-pentaen-7-yl]-1-(4,4-difluorocyclohexyl)ethan-1-ol], for which the IC50 is over 1000 nM.

For `OC(CC1c2nc(OC3CC3)ccc2-c2cncn21)C1CCC(F)(F)CC1` (single isomer, unassigned) [Compound 69c, 2-[10-cyclopropoxy-4,6,9-triazatricyclo[6.4.0.0^[2,6]]dodeca-1(8),2,4,9,11-pentaen-7-yl]-1-(4,4-difluorocyclohexyl)ethan-1-ol], the IC50 was over 1000 nM.

`OC(CC1c2nc(OC3CC3)ccc2-c2cncn21)C1CCC(F)(F)CC1` (single isomer, unassigned) [Compound 69d, 2-[10-cyclopropoxy-4,6,9-triazatricyclo[6.4.0.0^[2,6]]dodeca-1(8),2,4,9,11-pentaen-7-yl]-1-(4,4-difluorocyclohexyl)ethan-1-ol]: the 50% inhibitory concentration (IC50) is over 1000 nM.

For the compound `FC1(CCC2c3c(Cl)cccc3-c3cncn32)CCCCC1` (single isomer, unassigned) [Compound 70a, 6-chloro-5-[2-(1-fluorocyclohexyl)ethyl]-5H-imidazo[4,3-a]isoindole], the IC50 is over 1000 nM.

`FC1(CCC2c3c(Cl)cccc3-c3cncn32)CCCCC1` (single isomer, unassigned) [Compound 70b, 6-chloro-5-[2-(1-fluorocyclohexyl)ethyl]-5H-imidazo[4,3-a]isoindole]: the half-inhibitory concentration (IC50) fell in the range of 100 to 1000 nM.

For `OC1CCC(F)(CCC2c3c(Cl)cccc3-c3cncn32)CC1` (single isomer, unassigned) [Compound 71a, 4-[2-[6-chloro-5H-imidazo[4,3-a]isoindol-5-yl]ethyl]-4-fluorocyclohexan-1-ol], the half-maximal inhibitory concentration (IC50) is 100 to 1000 nM.

In the case of `OC1CCC(F)(CCC2c3c(Cl)cccc3-c3cncn32)CC1` (single isomer, unassigned) [Compound 71b, 4-[2-[6-chloro-5H-imidazo[4,3-a]isoindol-5-yl]ethyl]-4-fluorocyclohexan-1-ol], the IC50 was 100 to 1000 nM.

Take `OC1CCC(F)(CCC2c3c(Cl)cccc3-c3cncn32)CC1` (single isomer, unassigned) [Compound 71c, 4-[2-[6-chloro-5H-imidazo[4,3-a]isoindol-5-yl]ethyl]-4-fluorocyclohexan-1-ol]: the half-maximal inhibitory concentration (IC50) is over 1000 nM.

As to `OC1CCC(F)(CCC2c3c(Cl)cccc3-c3cncn32)CC1` (single isomer, unassigned) [Compound 71d, 4-[2-[6-chloro-5H-imidazo[4,3-a]isoindol-5-yl]ethyl]-4-fluorocyclohexan-1-ol], the IC50 is under 100 nM.

For the compound `FC1(F)CCC(F)(CCC2c3c(Cl)cccc3-c3cncn32)CC1` (single isomer, unassigned) [Compound 72a, 6-chloro-5-[2-(1,4,4-trifluorocyclohexyl)ethyl]-5H-imidazo[4,3-a]isoindole], the IC50 is over 1000 nM.

As to `FC1(F)CCC(F)(CCC2c3c(Cl)cccc3-c3cncn32)CC1` (single isomer, unassigned) [Compound 72b, 6-chloro-5-[2-(1,4,4-trifluorocyclohexyl)ethyl]-5H-imidazo[4,3-a]isoindole], the IC50 lay within 100 to 1000 nM.

On to `FC1(CCC2c3nc(C(F)(F)F)ccc3-c3cncn32)CCCCC1` (single isomer, unassigned) [Compound 76a, 7-[2-(1-fluorocyclohexyl)ethyl]-10-(trifluoromethyl)-4,6,9-triazatricyclo[6.4.0.0^[2,6]]dodeca-1(8),2,4,9,11-pentaene], for which the half-maximal inhibitory concentration (IC50) is over 1000 nM.

With `FC1(CCC2c3nc(C(F)(F)F)ccc3-c3cncn32)CCCCC1` (single isomer, unassigned) [Compound 76b, 7-[2-(1-fluorocyclohexyl)ethyl]-10-(trifluoromethyl)-4,6,9-triazatricyclo[6.4.0.0^[2,6]]dodeca-1(8),2,4,9,11-pentaene], the IC50 is over 1000 nM.

With `OC(CC1c2nc(C(F)(F)F)ccc2-c2cncn21)C1CCC(F)(F)CC1` (single isomer, unassigned) [Compound 77a, 1-(4,4-difluorocyclohexyl)-2-[10-(trifluoromethyl)-4,6,9-triazatricyclo[6.4.0.0^[2,6]]dodeca-1(8),2,4,9,11-pentaen-7-yl]ethan-1-ol], the IC50 is over 1000 nM.

For the compound `OC(CC1c2nc(C(F)(F)F)ccc2-c2cncn21)C1CCC(F)(F)CC1` (single isomer, unassigned) [Compound 77b, 1-(4,4-difluorocyclohexyl)-2-[10-(trifluoromethyl)-4,6,9-triazatricyclo[6.4.0.0^[2,6]]dodeca-1(8),2,4,9,11-pentaen-7-yl]ethan-1-ol], the IC50 was over 1000 nM.

`OC(CC1c2nc(C(F)(F)F)ccc2-c2cncn21)C1CCC(F)(F)CC1` (single isomer, unassigned) [Compound 77c, 1-(4,4-difluorocyclohexyl)-2-[10-(trifluoromethyl)-4,6,9-triazatricyclo[6.4.0.0^[2,6]]dodeca-1(8),2,4,9,11-pentaen-7-yl]ethan-1-ol]: the IC50 is over 1000 nM.

`NC(=O)C1CCC(F)(CCC2c3ccccc3-c3cncn32)CC1` (single isomer, unassigned) [Compound 79a, 4-fluoro-4-[2-[5H-imidazo[4,3-a]isoindol-5-yl]ethyl]cyclohexane-1-carboxamide]: the 50% inhibitory concentration (IC50) was over 1000 nM.

Regarding `NC(=O)C1CCC(F)(CCC2c3ccccc3-c3cncn32)CC1` (single isomer, unassigned) [Compound 79b, 4-fluoro-4-[2-[5H-imidazo[4,3-a]isoindol-5-yl]ethyl]cyclohexane-1-carboxamide], the IC50 was over 1000 nM.

In the case of `NC(=O)C1CCC(F)(CCC2c3ccccc3-c3cncn32)CC1` (single isomer, unassigned) [Compound 79c, 4-fluoro-4-[2-[5H-imidazo[4,3-a]isoindol-5-yl]ethyl]cyclohexane-1-carboxamide], the IC50 was under 100 nM.

In the case of `NC(=O)C1CCC(F)(CCC2c3ccccc3-c3cncn32)CC1` (single isomer, unassigned) [Compound 79d, 4-fluoro-4-[2-[5H-imidazo[4,3-a]isoindol-5-yl]ethyl]cyclohexane-1-carboxamide], the half-inhibitory concentration (IC50) is under 100 nM.

In the case of `O=C(O)C1CCC(F)(CCC2c3c(F)cccc3-c3cncn32)CC1` (single isomer, unassigned) [Compound 80a, 4-fluoro-4-(2-[6-fluoro-5H-imidazo[4,3-a]isoindol-5-yl]ethyl)cyclohexane-1-carboxylic acid], the IC50 is under 100 nM.

(Values after patent publication US9771370B2, “Compounds for the inhibition of indoleamine-2,3-dioxygenase” (Merck Patent GmbH, priority 2014, dated 2017).)
